# Laboratory results from patent US20210179989A1, “SYSTEM AND METHODS FOR OPTOGENETIC EVALUATION OF HUMAN NEUROMUSCULAR FUNCTION” (priority 2018, published 2021).
# Test system: acetylcholine receptors in the NMJ
# Type: cell-based, human
substance,measurement,value
α-bungarotoxin [BTX],average number of spontaneous contractions after treatment,0.17±0.17
same,"average score (corrected fraction of effective light pulses), after treatment",0.01±0.01
same,light-triggered and spontaneous contractions,completely stopped
